The first assay deals with Plasmodium falciparum Dd2 asexual blood stage parasites. Kind of assay: microbe, parasite or virus in culture. Details: species or system Plasmodium falciparum Dd2 in human erythrocytes; single determination (one 11-point concentration-response curve). Conditions: Plasmodium falciparum, DD2, Erythrocyte, 72 h.
The AC50 is the midpoint of the concentration-response curve, whichever way the signal moves. Consider `Cc1ccc(C(=O)Nc2cccc(NC(=O)c3ccc(C)c([N+](=O)[O-])c3)n2)cc1[N+](=O)[O-]` [MLS001195117-01], for which half-maximal activity (AC50) was put at 15 µM.

Staying with this assay, now noted: Plasmodium falciparum, DD2, Erythrocyte, 72 h; read-out: AC50.
Consider `Cc1ccc(O)c(CN2CCN(c3ccccc3)CC2)c1` [MLS000084753-01], for which the AC50 amounted to 2.99 µM. Same read-out and setting: under `CCC1(N2CCN(C)CC2)CCN([S+](=O)([O-])c2ccccc2)C1` (stereo not drawn) [NCGC00472095-01] stands 6.68 µM. Still for that read-out and setting: with `CCc1ccc2c(c1)cc(CN(/C(S)=N/c1cccc(C)c1)C1CC1)c1nnnn12` [MLS000556704-01] the figure was 3.35 µM; with `CC(=O)NCCNC[C@@H]1C=C(C)[C@H](Cc2nnc(-c3ccccc3)o2)C[C@H]1C(C)C` [NCGC00395892-01], 17.2 µM. Same read-out and setting: under `O=C1Nc2ccccc2CC12CCN2Cc1ccccn1` (stereo not drawn) [NCGC00477299-01] stands 4.33 µM.

As to `COCCN1C(=O)c2ccccc2C(C(=O)Nc2nc3ccccc3[nH]2)C12CCCCC2` (stereo not drawn) [NCGC00423176-01], the AC50 came to 4.73 µM. Take `CCN1CCN(Cc2ccc(NC(=O)c3cc(NC(=O)c4cc(-c5ccc(OC)cc5)n[nH]4)cc(OC)c3)cc2C(F)(F)F)CC1` [MLS000911571-01]: the AC50 is 0.168 µM. `O=C(NCc1ccco1)c1ccc2c(c1)N(Cc1c(F)cccc1Cl)C(=O)c1ccccc1S2` [NCGC00108150-01]: the AC50 was determined as 13.3 µM.

Regarding `CN(C)CCCNc1ccc(-c2cc(Nc3cccc(Cl)c3)ncn2)cn1` [MLS000911553-01], the AC50 was found to be 9.44 µM. On the same count and under the same terms, with `O=C(NCCN1CCCC1)C1CN([S+](=O)([O-])c2cccs2)CC12CCCCC2` (stereo not drawn) [NCGC00439935-01] the figure was 13.3 µM; with `COc1cc(CN2CC(=O)N(c3ccc(C)c(C)c3)C2=S)cc(OC)c1OC` [MLS000583901-01], 15 µM. For the compound `COc1cccc(-c2cc(C(=O)Nc3ccncc3)c3ccccc3n2)c1` [MLS001125696-01], the AC50 was found to be 6.68 µM. On to `Cc1ccc(NC(=O)c2c(C)oc3ccc(O)c(CN(C)Cc4ccccc4)c23)c(C)c1` [NCGC00115687-01], for which the AC50 was determined as 5.96 µM.

For `CC(C)(Oc1nn(Cc2cccc(Cl)c2)c2ccccc12)C(=O)NCCN1CCOCC1` [NCGC00419620-01], the AC50 is 5.31 µM. The same measure, in the same setting: under `CC(C)c1ccccc1OCC(O)CN(CC(O)COc1cccc2ccccc12)C(C)C` (stereo not drawn) [MLS001179995-01] stands 2.37 µM; under `Cc1cccc(-c2cc(C(=O)Nc3ccncc3)c3ccccc3n2)c1` [MLS001147429-01], 8.41 µM. Same read-out and setting: with `C=C(C)COc1ccc(-c2n[nH]cc2Oc2ccccc2OCC)c(O)c1` [MLS000083085-01] the figure was 2.99 µM; with `Cc1cc(Nc2cccc(Cl)c2)nc(NCc2ccccc2)n1` [MLS000591844-01], 8.41 µM. The same measure, in the same setting: under `O=C(c1cc(C(=O)NCc2ccccc2)c(=O)n(Cc2ccccc2)c1)c1cc(Br)ccc1O` [MLS000402314-01] stands 4.73 µM; under `Cc1ccc(CN2CCCC(Cc3ncc(C)n3Cc3ccccc3)C2)o1` (stereo not drawn) [NCGC00469705-01], 9.44 µM. `CC1Cn2c(nnc2-c2cc3ccccc3cc2O)S1` (stereo not drawn) [MLS000066435-01]: the AC50 was determined as 4.73 µM. The same measure, in the same setting: under `Cc1oc(-c2ccc(Cl)cc2)nc1Cn1c(=O)cc(-c2ccccc2)c2c(C)nn(C)c21` [NCGC00130157-01] stands 9.44 µM.

`COc1ccccc1N1CCN(CCCNC(=O)c2cnn(-c3ccccc3Cl)c2C2CCN(C(=O)OC(C)(C)C)CC2)CC1` [NCGC00126752-01]: the AC50 was determined as 2.37 µM. As for `CC(=O)C1=C(c2ccc(Cl)cc2)N(C(C)=O)n2c(nnc2C2CCCCC2)S1` [NCGC00137192-01], the concentration at half-maximal activity (AC50) was found to be 4.73 µM.

On to `O[C@H]1[C@H](NCC2CCCC2)[C@@H](c2ccccc2)C[C@H]1O` [NCGC00395463-01], for which the AC50 was 6.11 µM. On the same count and under the same terms, under `CC(C)c1ccccc1NC(=O)Cn1cccc1-c1nc(-c2ccc(F)cc2)no1` [NCGC00445438-01] stands 2.99 µM; under `CCCCn1cc(C(=O)c2cc(Br)ccc2O)cc(C#N)c1=O` [MLS000568063-01], 13.3 µM. On the same count and under the same terms, with `NC1=NC(c2ccccc2C(F)(F)F)N(c2ccc(F)c(Cl)c2)C(N)=N1` (stereo not drawn) [MLS001199775-01] the figure was 11.9 µM.

With `Cc1nc2c(c(-c3ccc(O)cc3)n1)CN(Cc1ccc(C(F)(F)F)cc1)CCC2` [NCGC00480263-01], the AC50 was determined as 4.22 µM. Same read-out and setting: with `COc1ccc(-c2c(C#Cc3ccsc3)c3cc(-c4cccc5[nH]ccc45)ccc3n2C)cc1` [MLS002391587-01] the figure was 6.68 µM; with `O=C(NC1CC1)C1CCN(S(=O)(=O)c2ccc(Cl)cc2)CC1` [MLS001220436-01], 13.3 µM. Same read-out and setting: under `O=C1NC2(CCN(Cc3ccc(C(F)(F)F)cc3)CC2)COc2ccccc21` [NCGC00477447-01] stands 8.41 µM.

On to `CO/N=C1\CN(c2nc3c(cc2F)c(=O)c(C(=O)O)cn3C2CC2)CC1CN` (stereo not drawn) [NCGC00095182-01], for which the AC50 came to 9.44 µM.

Turning to `Cc1ccc2nc(Cl)c3cc(C(=O)NCCCN4CCC(C)CC4)sc3c2c1` [NCGC00110841-01], the AC50 was 6.68 µM. Same read-out and setting: under `C/C=C/c1cc(CN2CCN(c3ccccc3)CC2)c(O)c(OC)c1` [MLS001002110-01] stands 5.96 µM; under `COc1ccc(Oc2c(C(F)(F)F)oc3c(CN4CCCC(C)C4)c(O)ccc3c2=O)cc1` (stereo not drawn) [NCGC00101510-01], 2.37 µM. `COc1cc2c(cc1OCC1CC1)NC(=O)C21CCN(c2nccs2)CC1` [NCGC00416908-01]: the AC50 came to 21.7 µM.

Regarding `Cn1cc(CN2CCCC(COc3ccccc3C(=O)N3CCCC3)C2)c2ccccc21` (stereo not drawn) [NCGC00427140-01], the AC50 is 9.44 µM.

`COc1ccc(-c2cc(-c3cccc(OC)c3OC)cn3cncc23)cc1` [NCGC00412191-01]: the AC50 is 6.85 µM. Same read-out and setting: under `Cc1ccc(-c2nnc(Nc3ccc(O)cc3)c3ccccc23)cc1[S+](=O)([O-])N1CCN(C)CC1` [NCGC00099994-01] stands 6.68 µM.

On to `CC1(c2ccccc2)N(Cc2cccnc2)C(=O)OC12CCN(Cc1ccccc1)CC2` (stereo not drawn) [NCGC00415633-01], for which the AC50 amounted to 17.2 µM. Same read-out and setting: with `CCC(=O)Nc1ccc2nnc(-c3ccc(C(=O)Nc4ccc5c(c4)OCCO5)cc3)n2c1` [NCGC00429833-01] the figure was 7.5 µM. Still for that read-out and setting: with `OC1=C2C(=Nc3ccccc3SC2c2c(F)cccc2Cl)c2ccccc21` (stereo not drawn) [NCGC00108823-01] the figure was 9.44 µM; with `COc1cc2c(cc1OC)C(COc1ccc3c(C)cc(=O)oc3c1)N(C(=O)Cc1ccc(F)cc1)CC2` (stereo not drawn) [NCGC00104919-01], 5.96 µM. The same measure, in the same setting: with `CN1N=C2c3ccccc3CCC2C1c1ccc(F)cc1` (stereo not drawn) [MLS000861852-01] the figure was 5.96 µM; with `N#Cc1cccc(C(=O)N2CCCN(Cc3ccncc3)C(c3ccccc3)CC(=O)NCC2)c1` (stereo not drawn) [NCGC00467150-01], 7.5 µM; with `CC1CCN(C(=O)CSc2nc(-c3ccc(C(C)C)cc3)no2)CC1` [NCGC00127906-01], 1.19 µM.

As to `CC1=C[C@@H](CNCCN(C)C)[C@H](C(C)C)C[C@H]1Cc1nnc(C(C)(C)C)o1` [NCGC00401821-01], the AC50 turned out to be 15.3 µM. On the same count and under the same terms, under `C[n+]1c(-c2ccccc2)cc(-c2ccc(Cl)cc2)cc1-c1ccccc1.[O-][Cl+3]([O-])([O-])O` [MLS001018624-01] stands 6.68 µM; under `COc1ccccc1N1CCN(C(=O)C2CCCN(S(=O)(=O)c3ccc4c(c3)oc(=O)n4C)C2)CC1` (stereo not drawn) [NCGC00140732-01], 5.96 µM. Still for that read-out and setting: under `COc1ccc(-c2ccc3ncc(Nc4cccc(C(F)(F)F)c4)n3n2)cn1` [NCGC00412495-01] stands 12.2 µM; under `CC(C)C(=O)NC(c1ccc([N+](=O)[O-])cc1)c1c(O)ccc2ccccc12` (stereo not drawn) [MLS000571279-01], 13.3 µM; under `Cc1cc(O)c(-c2ccnc3cc(-c4ccccc4)nn23)cc1Cl` [NCGC00164840-01], 1.88 µM. The same measure, in the same setting: with `COc1cccc(C(=O)N2CCC(N3C[C@H](O)C[C@H]3C(=O)N3CC=C(c4ccccc4)CC3)CC2)c1` [NCGC00460071-01] the figure was 9.44 µM; with `N#Cc1cc(C#N)c(N2CCN(c3cccc(Cl)n3)CC2)nc1N` [MLS000325470-01], 3.35 µM.

On to `Cc1ccc([S+](=O)([O-])N[C@@H]2CN(C)C[C@H]2CN(C)C)cc1F` [NCGC00462728-01], for which the AC50 was 15 µM. Still for that read-out and setting: under `OCc1ccc(CN2CCCC(CCc3c(F)cccc3F)C2)o1` (stereo not drawn) [NCGC00426759-01] stands 4.22 µM; under `C1CCC(CNc2c3c(nc4nnnn24)CCCC3)CC1` [MLS000034780-01], 13.3 µM.

As to `COc1cc(OC)cc(-c2cc3nc4c(c(N5CCN(c6ncccn6)CC5)n3n2)CCCC4)c1` [MLS000035210-01], the AC50 turned out to be 4.22 µM. As for `N#Cc1c2c(c(NCc3ccco3)n3c1nc1ccccc13)CCC2` [MLS000109113-01], the AC50 is 2.37 µM. Regarding `CC(=O)Nc1cc(-c2cc(C(=O)NCCc3c[nH]cn3)c3c(c2)N(C)CCO3)ccn1` [NCGC00417032-01], the AC50 was 13.7 µM. Turning to `CCN(CC(O)c1cccc(O)c1)C(=O)C12CC3CC(CC(C3)C1)C2` (stereo not drawn) [MLS001166662-01], the AC50 amounted to 4.73 µM.

In the case of `CCOC(=O)c1c(CN(CC)CC)n(C)c2cc(Br)c(O)cc12` [MLS000778381-01], the AC50 was 9.44 µM.

As for `CCCCCCC(O)(c1ccc(OC)cc1)C(CN1CCOCC1)c1ccccc1` (stereo not drawn) [MLS001198921-01], the AC50 stood at 4.22 µM.

As for `CCOc1ccc(NC(=O)CCc2c(C)nc3cc(-c4ccc(Cl)cc4)nn3c2C)cc1` [NCGC00110024-01], the AC50 was 6.68 µM. Regarding `CCN(CC)CCNC(=O)C12CCCC=C1N(Cc1ccccc1)C(=O)CC2` (stereo not drawn) [NCGC00472142-01], the AC50 worked out at 8.41 µM. The same measure, in the same setting: with `Cc1ccc(OCCSc2nc3ccc(NC(=O)c4cccs4)cc3s2)cc1` [NCGC00118830-01] the figure was 2.99 µM. Same read-out and setting: under `COc1ccc(OCCn2cc(C(=O)c3ccco3)c3ccccc32)cc1` [NCGC00101886-01] stands 2.11 µM. On the same count and under the same terms, with `O[C@H]1CC[C@@H](Cc2cc(COc3ccccc3)on2)O[C@@H]1CNCc1cccc(Cl)c1` [NCGC00393311-01] the figure was 2.11 µM; with `COC(=O)[C@H](Cc1ccc(OC)cc1)NC(=O)[C@H]1CN(C(=O)c2ccc(N(C)C)cc2)CCN1C(=O)C1CCCCC1` [NCGC00398660-01], 0.668 µM; with `Cc1cc(Nc2cccc(C(F)(F)F)c2)nc2ccc(NC(=O)c3cncc(Br)c3)cc12` [NCGC00124348-01], 2.37 µM.

The values above are taken from paper PMC7822874, “Chemoprotective antimalarials identified through quantitative high-throughput screening of Plasmodium blood and liver stage parasites” (Scientific Reports, 2021).
